The values below come from US20260062407A1, “PEROXIREDOXIN 3 INHIBITORS AND METHODS OF USE FOR TREATING CANCER” (WAKE FOREST UNIVERSITY HEALTH SCIENCES, priority 2022, published 2026).

Molecules are shown by their SMILES. Where only a bound is given, the exact number is not on record here.

In general, EC50 refers to the concentration at which the effect is half-maximal. The low end stands for an effect from little substance, the high end for a need for much substance.

In data set [1] the test system is 578 cancer cells lines. Particulars: of 578 cancer cell lines tested; cited from earlier work.
Data set [2] has as its system Enterococcus hirae (ATCC #10541). Kind of data set: Antimicrobial Activity Assay (MIC). Type of data set: cell-based. The method, then:
The overnight growth was then diluted into growth media to make a single solution of E. hirae with a final optical density at 600 nm=0.02 AU. A 20 mM stock solution of Thiostrepton in DMSO was made and used to make multiple dilutions of TS in DMSO. Each TS dilution (0.1 mL) was then added to a test tube containing 10 mL of the diluted E. hirae and grown at 37° C. overnight while shaking at 180 rpm. The next morning, each tube was visually inspected to determine if the cells grew. Final concentrations tested were 0.120, 0.090, 0.075, 0.060, 0.045, 0.030, and 0.015 μM TS. […] Three replicates were made on three separate days (n=9). […] For TS analogs, the dilute E. hirae was treated with 20 μM final concentration of each analog (three replicates each). […] DMSO was used as a positive control (complete cell growth) and 20 μM thiostrepton was used as a negative control.

Data set [3] has as its system SK-OV-3 ovarian cancer cells. Kind of data set: Cellular Activity Assay (cytotoxicity, crystal violet). Type of data set: cell-based. Particulars: Homo sapiens; SK-OV-3 cells, 48 hr treatment, 0.1-100 μM, crystal violet absorbance at 540 nm. From the text:
To test the activity of compounds, two complimentary assays were used as described below. The Biochemical PRX3 Inhibition Assay tests the ability of each compound to crosslink PRX3 in a simple, in vitro system. In the Cellular Activity Assay, we are testing the ability of compounds to kill SK-OV-3 ovarian cancer cells.
The Cellular Activity Assay measures the EC50 of each compound in human SK-OV-3 ovarian cancer cells TS to be taken into the cell, transported to the mitochondria, and crosslink PRX3.
The cytotoxicity of compounds was measured as described in Nelson et al. (2021) Antioxidants (Basel) 10, 150; Cunniff et al. (2015) PloS one 10, e0127310; and Newick et al. (2012)PloS one 7, e39404. SK-OV-3 is an adherent, epithelial, adenocarcinoma cell line obtained from ATCC (ref #: HTB-77). SK-OV-3 cells are resistant to the commonly used chemotherapeutics, cis-platinum and doxorubicin. For this PRX3 crosslinking assay, SK-OV-3 cells were plated in a 96-well plate. After 24 h recovery, the cells were treated for 48 hr with multiple concentrations of each compound ranging from 0.1-100 μM.
Cells were washed with PBS to remove dead cells and the remaining live cells were fixed with 3.0% formaldehyde and stained with 0.1% crystal violet. The amount of crystal violet was determined by reading the absorbance at 540 nm (crystal violet dye dissolved in 100% methanol) using a plate reader. […]

Data set [4] is described as follows: Solubility Assay (HPLC). Particulars: 20 mM HEPES, 100 mM NaCl, pH 7.5, 18-24 hours at ambient temperature. In kind it is physicochemical. As to the method:
A 20 mM stock solution was made for each compound in DMSO. To measure solubility, 0.03-0.05 mL of the stock was added to 0.27 mL 20 mM HEPES, 100 mM NaCl, pH 7.5. The solution was mixed and rotated 18-24 hours at ambient temperature. The next day, solutions were centrifuged for 10 min at 20,000×g at 24° C. to remove insoluble, solid material. Next, 100 μL of the supernatant containing the soluble compound was added to 900 μL DMSO and High Performance Liquid Chromatography was performed as described in Table 1 and either HPLC gradient 1 (Table 2) or HPLC gradient 2 (Table 3). For each analog, a 200 μM standard and a 20 μM standard were prepared and run in parallel (standards were dissolved completely in 100% DMSO). The amount of compound in the experimental sample was calculated by comparing the area under the curve for compound peak to the area for the closest standard and correcting for dilution.

In the case of `C=C(NC(=O)C(=C)NC(=O)c1csc(C2=N[C@@H]3c4csc(n4)[C@H]4NC(=O)c5csc(n5)[C@H]([C@](C)(O)[C@@H](C)O)NC(=O)[C@H]5CSC(=N5)/C(=C/C)NC(=O)[C@H]([C@@H](C)O)NC(=O)c5csc(n5)[C@]3(CC2)NC(=O)[C@H](C)NC(=O)C(=C)NC(=O)[C@H](C)NC(=O)[C@H]([C@@H](C)CC)N[C@@H]2C=Cc3c([C@H](C)O)cc(nc3[C@H]2O)C(=O)O[C@@H]4C)n1)C(N)=O` [Thiostrepton (TS), Thiostrepton], the “number of tumor cell lines with meaningful efficacy” value in data set [1] was 403.

As for `C=C(NC(=O)C(=C)NC(=O)c1csc(C2=N[C@@H]3c4csc(n4)[C@H]4NC(=O)c5csc(n5)[C@H]([C@](C)(O)[C@@H](C)O)NC(=O)[C@H]5CSC(=N5)/C(=C/C)NC(=O)[C@H]([C@@H](C)O)NC(=O)c5csc(n5)[C@]3(CC2)NC(=O)[C@H](C)NC(=O)C(=C)NC(=O)[C@H](C)NC(=O)[C@H]([C@@H](C)CC)N[C@@H]2C=Cc3c([C@H](C)O)cc(nc3[C@H]2O)C(=O)O[C@@H]4C)n1)C(N)=O` [TS, Thiostrepton], the “TS concentrations at which complete growth was observed” value in data set [2] (E. hirae, overnight at 37° C., n=9) was no more than 0.030 µM. The MIC in data set [2] (Enterococcus hirae, ATCC10541, read-out: TS concentrations at which no growth was observed (MIC)) is no less than 0.045 µM.

As for `C=C(NC(=O)c1csc(N2CCC(NC(=O)CC3CCOCC3)CC2)n1)C(=O)NC(=C)C(=O)OC` [Compound 51, Methyl 2-(2-(2-(4-(2-(tetrahydro-2H-pyran-4-yl)acetamido)piperidin-1-yl)thiazole-4-carboxamido)acrylamido)acrylate], the EC50 in data set [3] fell in the range of 10 to 25 µM. For the same compound, in data set [4], the Solubility entry is on record as “+ (<0.1 mM)”.
